The results in this text go back to patent US20090227560A1, “Substituted imidazole compound and use thereof” (priority 2007, published 2009).

Structures can show the parent of a compound that is named as a salt.

This assay deals with T1, Human renin (Homo sapiens, UniProt P00797).
T1 construct: thus to obtain 1.5 mg of a purified product of active type renin (67-406); made in house; host or cells: FreeStyle 293-F cells (transient expression of pcDNA3.1(+)/hREN)
T1 sequence (P00797 67-406): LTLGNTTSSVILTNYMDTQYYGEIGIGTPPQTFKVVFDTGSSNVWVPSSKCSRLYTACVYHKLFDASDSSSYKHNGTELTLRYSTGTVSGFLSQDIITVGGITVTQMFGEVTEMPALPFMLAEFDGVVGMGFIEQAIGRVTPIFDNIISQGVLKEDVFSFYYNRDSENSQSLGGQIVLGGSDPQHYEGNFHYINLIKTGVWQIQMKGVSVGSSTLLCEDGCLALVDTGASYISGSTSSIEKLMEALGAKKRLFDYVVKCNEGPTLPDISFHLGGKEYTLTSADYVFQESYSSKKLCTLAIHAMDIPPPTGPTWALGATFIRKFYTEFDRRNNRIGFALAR
In words: Measurement of renin inhibition value A (FITC-labelled substrate peptide, capillary electrophoresis). The assay is classed as biochemical. The note with it: test compound 1 μM, renin 4.7 nM, pH 6.0, 37° C., 30 min, read-out: inhibitory activity (%) at 1 μM. The protocol:
Human renin was obtained by expressing preprorenin (1-406) in an animal cell, treating the prorenin (24-406) contained in the culture supernatant with trypsin, and taking the active type (67-406).
To 3.6 mg of prorenin (24-406) dissolved in 5.2 ml of 0.1 M Tris-hydrochloric acid (pH 8.0), 12 μg of trypsin (Roche Diagnostics Corp.) was added, and the mixture was allowed to react at 28° C. for 55 min to carry out activation of renin. After the reaction, 0.4 ml of immobilized trypsin inhibitor (Pierce Biotechnology, Inc.) was added to remove the trypsin used in the activation by adsorption. The reaction liquid containing the active type renin was concentrated using Vivaspin 20 (molecular weight cut off 10,000, Vivascience, Inc.), and was diluted with 20 mM Tris-hydrochloric acid (pH 8.0). The diluted liquid was fed to a TSKgel DEAE-5PW column (7.5 mm I.D.×75 mm, Tosoh Corp.) equilibrated with 20 mM Tris-hydrochloric acid (pH 8.0) at a flow rate of 1 ml/min to adsorb the active type renin (67-406). The column was washed with the buffer solution used for the equilibration, and then elution was carried out by means of a sodium chloride linear concentration gradient from 0 M to 0.3 M, thus to obtain 1.5 mg of a purified product of active type renin (67-406).
As a substrate for renin activity measurement, a substrate peptide (FITC-Acp-Asp-Arg-Val-Tyr-Ile-His-Pro-Phe-His-Leu-Val-Ile-His-Gln-Arg-NH2; SEQ ID No.8) wherein the N-terminal of a peptide prepared in reference to a partial sequence (Asp-Arg-Val-Tyr-Ile-His-Pro-Phe-His-Leu-Val-Ile-His-Asn-Glu-NH2; SEQ ID No.7) of human angiotensinogen was bound with epsilon aminocaproic acid (Acp) as a linker and labeled with a fluorescence reagent Fluorescein isothiocyanate (FITC). 2 μl each of the test compound (containing 100% DMSO) was added to each well of a 384-well black plate (Nalge Nunc International Co., Ltd.). Renin was diluted with a buffer solution for reaction (20 mM citric acid-sodium citrate (pH 6.0)) to a concentration of 4.7 nM, and 30 μl each of the dilution was added to each well. The dilution was left to stand at 37° C. for 10 min, and then 8 μl of each of a 25 μM solution of substrate peptide was added to each well to initiate the reaction. The reaction mixture was left to stand at 37° C. for 30 min, and then 40 μl each of a reaction terminating solution [200 mM Tris-hydrochloric acid (pH 8.0), 0.04% Triton-X 100, 0.4% Coating 3 reagent (Caliper Life Sciences Corp.) and 1 μM CGP-29287 (Bachem Holding AG)] was added to each well to terminate the reaction.
The substrate peptide and the product peptide were separated by a microchip type capillary electrophoresis system 250HTS (Caliper Life Sciences Co., Ltd.), and the rate of reaction [(peak height of product)/(peak height of product+peak height of substrate)×100(%)] was calculated from the ratio of the respective peak height of the peptides obtained by fluorimetric detection (excitation wavelength 457 nm, measurement wavelength 530 nm), and was used as an index of the renin activity.
While the reaction rate of the well where 100% DMSO only was added was taken as 0% inhibition rate, and the reaction rate of the well where 10 μM of CGP-29287 was added was taken as 100% inhibition rate, the renin inhibitory activity of the wells where the test compound (containing 100% DMSO) was added was calculated.
In the case of `O=C(c1ncn([C@H]2CCCC[C@H]2O)c1-c1ccccc1)N1CCNC[C@H]1Cc1cc(F)cc(F)c1` [Example 1, (1R,2S)-2-(4-{[(2R)-2-(3,5-Difluorobenzyl)piperazin-1-yl]carbonyl}-5-phenyl-1H-imidazol-1-yl)cyclohexanol hydrochloride], the inhibition at 1 µM was 96%.

`O=C(c1ncn(CC2(O)CCCCC2)c1-c1ccccc1)N1CCNC[C@H]1Cc1ccccc1` [Example 4, 1-[(4-{[(2R)-2-Benzylpiperazin-1-yl]carbonyl}-5-phenyl-1H-imidazol-1-yl)methyl]cyclohexanol]: the inhibition at 1 µM came to 99%.

As to `COC(=O)N[C@H]1CCCC[C@@H]1n1cnc(C(=O)N2CCNC[C@H]2Cc2ccccc2)c1-c1ccccc1` [Example 6, Methyl [(1S,2S)-2-(4-{[(2R)-2-benzylpiperazin-1-yl]carbonyl}-5-phenyl-1H-imidazol-1-yl)cyclohexyl]carbamate], the inhibition at 1 µM was 98%.

Regarding `O=C(c1ncn(C2CCCCC[C@@H]2O)c1-c1ccccc1)N1CCNC[C@H]1Cc1ccccc1` (stereo partly drawn) [Example 7, trans-2-(4-{[(2R)-2-Benzylpiperazin-1-yl]carbonyl}-5-phenyl-1H-imidazol-1-yl)cycloheptanol], the inhibition at 1 µM came to 100%.

On to `COC[C@]1(O)CCCC[C@H]1n1cnc(C(=O)N2CCNC[C@H]2CCOc2ccc(C(=O)OC)cc2)c1-c1ccccc1` [Example 15, Methyl 4-{2-[(2R)-1-({1-[(1R,2S)-2-hydroxy-2-(methoxymethyl)cyclohexyl]-5-phenyl-1H-imidazol-4-yl}carbonyl)piperazin-2-yl]ethoxy}benzoate], for which the inhibition at 1 µM came out at 96%.

As for `O=C(c1ncn(C2CCCCC2)c1-c1ccccc1)N1CCNC[C@H]1Cc1ccccc1` [Example 349, (2R)-2-Benzyl-1-[(1-cyclohexyl-5-phenyl-1H-imidazol-4-yl)carbonyl]piperazine], the inhibition at 1 µM was determined as 101%.

With `O=C(c1ncn([C@H]2CCCC[C@H]2O)c1-c1ccccc1)N1CCNC[C@H]1Cc1ccccc1` [Example 352, (1R,2S)-2-(4-{[(2R)-2-Benzylpiperazin-1-yl]carbonyl}-5-phenyl-1H-imidazol-1-yl)cyclohexanol], the inhibition at 1 µM turned out to be 101%.

Take `CCOC(=O)N[C@H]1CCCC[C@@H]1n1cnc(C(=O)N2CCNC[C@H]2Cc2ccccc2)c1-c1ccccc1` [Example 357, Ethyl [(1S,2S)-2-(4-{[(2R)-2-benzylpiperazin-1-yl]carbonyl}-5-phenyl-1H-imidazol-1-yl)cyclohexyl]carbamate]: the inhibition at 1 µM was determined as 100%.

Regarding `CCOC(=O)N[C@H]1CCCC[C@@H]1n1cnc(C(=O)N2CCNC[C@H]2Cc2cc(F)cc(F)c2)c1-c1ccccc1` [Example 358, Ethyl [(1S,2S)-2-(4-{[(2R)-2-(3,5-difluorobenzyl)piperazin-1-yl]carbonyl}-5-phenyl-1H-imidazol-1-yl)cyclohexyl]carbamate], the inhibition at 1 µM is 103%.

For `CCCCC1(O)CCCCC1n1cnc(C(=O)N2CCNC[C@H]2Cc2ccccc2)c1-c1ccccc1` (stereo partly drawn) [Example 360, 2-(4-{[(2R)-2-Benzylpiperazin-1-yl]carbonyl}-5-phenyl-1H-imidazol-1-yl)-1-butylcyclohexanol hydrochloride], the inhibition at 1 µM turned out to be 99%.

For `CCOCC1(O)CCCCC1n1cnc(C(=O)N2CCNC[C@H]2Cc2ccccc2)c1-c1ccccc1` (stereo partly drawn) [Example 361, 2-(4-{[(2R)-2-Benzylpiperazin-1-yl]carbonyl}-5-phenyl-1H-imidazol-1-yl)-1-(ethoxymethyl)cyclohexanol], the inhibition at 1 µM came out at 100%.

Turning to `O=C(c1ncn([C@@H]2CCCC[C@@]2(O)CC2CC2)c1-c1ccccc1)N1CCNC[C@H]1Cc1ccccc1` [Example 363, (1R,2R)-2-(4-{[(2R)-2-Benzylpiperazin-1-yl]carbonyl}-5-phenyl-1H-imidazol-1-yl)-1-(cyclopropylmethyl)cyclohexanol hydrochloride], the inhibition at 1 µM was determined as 98%.

Consider `COC[C@]1(O)CCCC[C@H]1n1cnc(C(=O)N2CCNC[C@H]2Cc2ccccc2)c1-c1ccccc1` [Example 367, (1S,2R)-2-(4-{[(2R)-2-Benzylpiperazin-1-yl]carbonyl}-5-phenyl-1H-imidazol-1-yl)-1-(methoxymethyl)cyclohexanol dihydrochloride], for which the inhibition at 1 µM was 99%.

Consider `CSCCCOC[C@@]1(O)CCCC[C@@H]1n1cnc(C(=O)N2CCNC[C@H]2Cc2ccccc2)c1-c1ccccc1` [Example 378, (1R,2S)-2-(4-{[(2R)-2-Benzylpiperazin-1-yl]carbonyl}-5-phenyl-1H-imidazol-1-yl)-1-{[3-(methylthio)propoxy]methyl}cyclohexanol], for which the inhibition at 1 µM turned out to be 99%.

As for `COC[C@]1(O)CCCC[C@H]1n1cnc(C(=O)N2CCNC[C@H]2Cc2cc(F)cc(F)c2)c1-c1ccccc1` [Example 379, (1S,2R)-2-(4-{[(2R)-2-(3,5-Difluorobenzyl)piperazin-1-yl]carbonyl}-5-phenyl-1H-imidazol-1-yl)-1-(methoxymethyl)cyclohexanol hydrochloride], the inhibition at 1 µM is 99%.

As for `COC[C@]1(O)CCCC[C@H]1n1cnc(C(=O)N2CCNC[C@H]2Cc2cccnc2)c1-c1ccccc1` [Example 380, (1S,2R)-1-(Methoxymethyl)-2-(5-phenyl-4-{[(2R)-2-(pyridin-3-ylmethyl)piperazin-1-yl]carbonyl}-1H-imidazol-1-yl)cyclohexanol dihydrochloride], the inhibition at 1 µM amounted to 100%.

Consider `COC[C@]1(O)CCCC[C@H]1n1cnc(C(=O)N2CCNC[C@H]2Cc2ccccc2)c1-c1cccc(F)c1` [Example 383, (1S,2R)-2-[4-{[(2R)-2-Benzylpiperazin-1-yl]carbonyl}-5-(3-fluorophenyl)-1H-imidazol-1-yl]-1-(methoxymethyl)cyclohexanol], for which the inhibition at 1 µM stood at 100%.

`COC[C@]1(O)CCCC[C@H]1n1cnc(C(=O)N2CCNC[C@H]2CCOc2ccccc2)c1-c1ccccc1` [Example 387, (1S,2R)-1-(Methoxymethyl)-2-(4-{[(2R)-2-(2-phenoxyethyl)piperazin-1-yl]carbonyl}-5-phenyl-1H-imidazol-1-yl)cyclohexanol dihydrochloride]: the inhibition at 1 µM is 109%.

`COC[C@]1(O)CCCC[C@H]1n1cnc(C(=O)N2CCNC[C@H]2CCOc2ccccc2F)c1-c1ccccc1` [Example 389, (1S,2R)-2-[4-({(2R)-2-[2-(2-Fluorophenoxy)ethyl]piperazin-1-yl}carbonyl)-5-phenyl-1H-imidazol-1-yl]-1-(methoxymethyl)cyclohexanol]: the inhibition at 1 µM stood at 106%.

In the case of `COC[C@]1(O)CCCC[C@H]1n1cnc(C(=O)N2CCNC[C@H]2CCOc2ccc(C(=O)NC3CC3)cc2)c1-c1ccccc1` [Example 390, N-Cyclopropyl-4-{2-[(2R)-1-({1-[(1R,2S)-2-hydroxy-2-(methoxymethyl)cyclohexyl]-5-phenyl-1H-imidazol-4-yl}carbonyl)piperazin-2-yl]ethoxy}benzamide], the inhibition at 1 µM was found to be 105%.

On to `COC[C@]1(O)CCCC[C@H]1n1cnc(C(=O)N2CCNC[C@H]2CCn2ncc3ccccc32)c1-c1ccccc1` [Example 391, (1S,2R)-2-[4-({(2R)-2-[2-(1H-Indazol-1-yl)ethyl]piperazin-1-yl}carbonyl)-5-phenyl-1H-imidazol-1-yl]-1-(methoxymethyl)cyclohexanol], for which the inhibition at 1 µM came out at 109%.
